In test [1] the test system is Serca2 gene. Kind of test: Serca2 mRNA induction in normal human epidermal keratinocytes (NHEK), Northern blotting. The class given is cell-based. As to conditions: for strength of Serca2 gene inducing action: comparison among inducers. Here is the method: Normal human epidermal keratinocytes (NHEK) were cultured in a serum-free medium (KGM medium) from which only hydrocortisone was excluded. A test substance dissolved in dimethyl sulfoxide (DMSO) as a solvent was added to the medium and culture was continued, and amount of mRNA of Serca2 gene in the epidermal keratinocytes was quantified by Northern blotting after 3, 6, and 9 hours. […] RNA was extracted 0, 3, 6, 12, 18, 24, and 48 hours after the addition of WiN55,212-2 to the epidermal keratinocytes, and expression of Serca2 gene was observed by Northern blotting.
Test substances including various kinds of vanilloid agonists were examined in the same manner as that of Example 1.

In test [2] the test system is skin samples of healthy persons. Put plainly: Pathological changes by HE staining in skin samples of healthy persons under organ culture. The test is classed as cell-based. Particulars: healthy human skin organ culture, optimum concentration, fixed after 24 to 48 hours. Here is the method:
Optimum concentrations of dihomo-γ-linolenoyldopamine, WIN55,212-2, DPTHF as a vanilloid antagonist, and DMSO (control) were each added to skin samples of healthy persons and kept under a state of organ culture in the same manner as in Example 3. The skin samples were fixed after 24 to 48 hours, and pathological changes were observed by HE staining.

For test [3], the system named is ATP2A protein. Put plainly: ATP2A protein localization by immunostaining in skins of healthy persons transplanted to nude mice. Particulars: healthy human skin on nude mice, optimum concentration applied every day for 5 days. The test is classed as in vivo. The text has this:
Skins of healthy persons were transplanted to nude mice, and after one week under acceptance of graft, optimum concentrations of dihomo-γ-linolenoyldopamine, WIN55,212-2, DPTHF as a vanilloid antagonist, and DMSO (control) were each applied every day for 5 days. The skin samples where the application was made were fixed after biopsy, and localization of ATP2A protein was identified by immunostaining.

Test [4] concerns ATP2A2 mRNA. Kind of test: ATP2A2 mRNA expression in epidermal keratinocytes of Darier's disease patients, Northern blotting. The class given is cell-based, human. As to conditions: keratinocyte cell lines of 3 Darier's disease patients, 6 hours after treatment, 10^−6 to 10^−9 mol. The protocol: Epidermal keratinocytes were collected from skins of pathological lesions of 3 Darier's disease patients, and cultured to establish cell lines. The cells were treated with WIN55,212-2 or a vanilloid agonist (dihomo-γ-linolenoyldopamine or eicosa-11Z,14Z-dienoyldopamine), and after 6 hours, RNAs were extracted and the expression of ATP2A2 mRNA was observed by Northern blotting. […] When the epidermal keratinocytes of the other two Darie's disease patients were used, similar results were obtained.

The subject of test [5] is three-dimensionally cultured skin model of Darie's disease patients' keratinocytes. Put plainly: Darie's disease model skin by three-dimensional culture. The class given is cell-based, human. Particulars: added to the medium; keratinocytes with fibroblasts or interstitial components; 5 to 11 days. Here is the method: In order to construct a model skin of Darie's disease which is readily reproducible and can be repetitively applied for assays, a […] model skin was constructed by three-dimensional culture of a combination of cultured epidermal keratinocytes and fibroblasts of Darie's disease patients, or three-dimensional culture of a combination of cultured epidermal keratinocytes Darie's disease patients and interstitial components. WIN55,212-2 or dihomo-γ-linolenoyldopamine was added to the medium of the above model skin to confirm the actions thereof. […] With the DMSO treatment as a control, individual keratinization and acantholysis remained, and pathological conditions corresponding to the pathological pictures of Darie's disease were observed.

Test [6] relates to skin samples of Darie's disease patients. Kind of test: Pathological examination of skin of Darie's disease patients transplanted to nude mice, applied 9 days. The class given is in vivo, human skin transplanted to nude mice. As to conditions: Darie's disease patient skin on nude mice, applied for 9 days in DMSO. The protocol:
Skin samples of Darie's disease patients with an area of 1 to 2 cm square were transplanted to nude mice, and acceptance of graft was confirmed after 7 days. Thereafter WIN55,212-2 or dihomo-γ-linolenoyldopamine was applied for 5 to 9 days using dimethyl sulfoxide (DMSO) as a solvent, and effectiveness of the drugs was determined on the basis of pathological examinations. This method is effective for successful determination of efficacy of a drug under a condition closest to the affected patient's skin. […] Where a solvent (DMSO) was applied as the control, dyskeratosis, parakeratosis, and blistering remained, the granular layer remained disappeared, and pathological pictures of Darie's disease were observed even after the transplantation. It is considered that the medicament of the present invention has sufficient effectiveness on inflammatory keratosis such as psoriasis vulgaris, as well as on Darie's disease, because potent therapeutic effect that achieves successful recover of even the formation of normal granular layer was observed when the cannabinoid agonist was applied.

Test [7] has the same test system. Put plainly: Pathological changes by HE staining in skin of Darie's disease patients transplanted to nude mice, applied 5 days. The test is classed as in vivo, human skin transplanted to nude mice. As to conditions: Darie's disease patient skin on nude mice, optimum concentration applied every day for 5 days. The text has this: Skin samples of Darie's disease patients were collected under informed consent of the patients, and transplanted to nude mice, and after one week under acceptance of graft, optimum concentrations of dihomo-γ-linolenoyldopamine, WIN55,212-2, and DMSO (control) were each applied to the skin samples every day for 5 days. The skins where the application was made were fixed after biopsy, and pathological changes were observed by HE staining.

Test [8] deals with ATP2A protein. Kind of test: ATP2A protein localization by immunostaining in human skin under organ culture. The class given is cell-based. As to conditions: optimum concentration, fixed after 24 hours. The protocol:
Human skin under a state of organ culture was added with optimum concentration of dihomo-γ-linolenoyldopamine or DMSO (control), and after 24 hours later, the skin was fixed, and then localization of ATP2A protein, which is the causative protein of Darie's disease, was identified by immunostaining.

Setting [9] is: vanilloid agonists, same manner as Example 1.
[10] abbreviates: synthetic cannabinoid agonists in DMSO, Northern blotting after 3, 6 and 9 hours.

As to `NCCOB(c1ccccc1)c1ccccc1` [2-aminoethoxydiphenyl borate (2-APB), 2-aminoethoxydiphenyl borate], the “induction of Serca2 gene (mRNA)” value in test [1] (setting [9]) was “induced the Serca2 gene”.

As for `CCCCCCCCCC(=O)O[C@@H]1[C@@H](C)[C@@]2(O)[C@@H](C=C(CO)C[C@@]3(O)C(=O)C(C)=C[C@@H]23)[C@@H]2C(C)(C)[C@]12OC(=O)CCCCCCCCC` [4-α-phorbol 12,13-didecanoate (4α-PDD), 4-α-phorbol 12,13-didecanoate], the “induction of Serca2 gene (mRNA)” value in test [1] (setting [9]) is listed as “induced the Serca2 gene”.

In the case of `COc1ccc2c(c1)c(CC(=O)N1CCOCC1)c(C)n2C(=O)c1ccc(Cl)cc1` [BML-190], in test [1] (setting [10]), the “induction of Serca2 gene (mRNA)” value is listed as “induction of Serca2 gene was induced”.

With `c1ccc(C2(c3ccccc3)CCCO2)cc1` [DPTHF, diphenyltetrahydrofuran], in test [2], the “pathological changes by HE staining” value was “pathological images similar to those of Darie's disease such as individual keratinization and acantholysis were observed”. The “localization/expression of ATP2A protein by immunostaining” value (from here on “localization/expression of ATP2A protein”) in test [3] is reported as “decrease of expression of ATP2A2 was observed”. Also, the “inducing action of vanilloid agonists on Serca2 gene expression when the vanilloid antagonist coexisted” value in test [1] (coexisting with vanilloid agonists (FIG. 7: dihomo-γ-linolenoyldopamine+DPTHF)) is reported as “disappeared”.

Consider `Cc1c(C(=O)c2cccc3ccccc23)c2cccc3c2n1[C@H](CN1CCOCC1)CO3` [WIN55,212-2], for which the “pathological changes by HE staining” value in test [2] is “remained in a state of physiological skin not distinguishable from healthy skins”; in test [7] it was “these pathological changes characteristic to Darie's disease disappeared”. Besides, the “expression of ATP2A2 mRNA” value in test [4] is on record as “concentration-dependent promotion of expression of ATP2A2 was observed”. The “pathological pictures in three-dimensional model skin” value in test [5] was “recovery of three-dimensional skin having quality similar to that of healthy skin was observed”. The “localization/expression of ATP2A protein” value in test [3] was “excessively advanced expression in the basal layer was observed”. Besides, the “pathological pictures (effectiveness by pathological examination)” value in test [6] is “dyskeratosis, parakeratosis, and blistering were disappeared, and normal keratinization was observed with recovered granular layer”. Further, in test [1] (setting [10]), the “induction of Serca2 gene (mRNA)” value is reported as “induction of Serca2 gene was induced”.

Turning to `CCCCC/C=C\C/C=C\C/C=C\CCCCCCC(=O)NCCc1ccc(O)c(O)c1` [dihomo-γ-linolenoyldopamine], the “pathological changes by HE staining” value in test [2] is “remained in a state of physiological skin not distinguishable from healthy skins”; in test [7] it was “these pathological changes characteristic to Darie's disease disappeared”. Besides, the “expression of ATP2A2 mRNA” value in test [4] is on record as “concentration-dependent promotion of expression of ATP2A2 was observed”. Also, the “pathological pictures in three-dimensional model skin” value in test [5] is given as “recovery of three-dimensional skin having quality similar to that of healthy skin was observed”. The “localization/expression of ATP2A protein” value in test [3] and in test [8] was “excessively advanced expression in the basal layer was observed” each time. Besides, the “pathological pictures (effectiveness by pathological examination)” value in test [6] was “dyskeratosis and blistering disappeared, and the granular layer also slightly recovered, but keratinization accompanied by parakeratosis slightly remained”. In addition, the “strength of Serca2 gene inducing action” value in test [1] (vanilloid agonists) was “potent inducing action”. Further, the “induction of Serca2 gene (mRNA)” value in test [1] (setting [9]) was “induced the Serca2 gene”.

Regarding `CC/C=C\C/C=C\C/C=C\C/C=C\C/C=C\C/C=C\CCC(=O)NCCc1ccc(O)c(O)c1` [docosahexaenoyldopamine], in test [1] (setting [9]), the “induction of Serca2 gene (mRNA)” value is “induced the Serca2 gene”.

With `CCCCC/C=C\C/C=C\C/C=C\C/C=C\CCCCCC(=O)NCCc1ccc(O)c(O)c1` [docosatetra-7Z,10Z,13Z,16Z-enoyldopamine], in test [1] (setting [9]), the “induction of Serca2 gene (mRNA)” value was “induced the Serca2 gene”.

For `CCCCC/C=C\C/C=C\CCCCCCCCCC(=O)NCCc1ccc(O)c(O)c1` [eicosa-11Z,14Z-dienoyldopamine], the “expression of ATP2A2 mRNA” value in test [4] was “concentration-dependent promotion of expression of ATP2A2 was observed”. The “strength of Serca2 gene inducing action” value in test [1] (vanilloid agonists) is listed as “potent inducing action”. In test [1] (setting [9]), the “induction of Serca2 gene (mRNA)” value is “induced the Serca2 gene”.

As for `CC/C=C\C/C=C\C/C=C\C/C=C\C/C=C\CCCC(=O)NCCc1ccc(O)c(O)c1` [eicosapentaenoyldopamine], the “induction of Serca2 gene (mRNA)” value in test [1] (setting [9]) is recorded as “induced the Serca2 gene”.

With `CCCCC/C=C\C/C=C\C/C=C\C/C=C\CCCC(=O)N[C@H](C)CO` [methanandamide], the “induction of Serca2 gene (mRNA)” value in test [1] (setting [10]) is reported as “induction of Serca2 gene was induced”.

Turning to `CCCCC/C=C\C/C=C\C/C=C\CCCCC(=O)NCCc1ccc(O)c(O)c1` [γ-linolenoyldopamine], the “strength of Serca2 gene inducing action” value in test [1] (vanilloid agonists) was “potent inducing action”. Moreover, in test [1] (setting [9]), the “induction of Serca2 gene (mRNA)” value is “induced the Serca2 gene”.

The values are drawn from patent US20100130603A1, “MEDICAMENT FOR PROPHYLACTIC AND THERAPEUTIC TREATMENT OF DERMATOSIS RESULTING FROM EXCESSIVELY ADVANCED KERATINIZATION” (KYOTO UNIVERSITY, priority 2007, published 2010).
